Like-named read-outs stand apart in the source and are kept apart here.
How the values were obtained:
[1] = system: X. campestris, E. coli, B. subtilis and S. aureus; test: Antibacterial activity, MIC summarised over the bacteria tested; type: cell-based; details: read-out: MIC values against the bacteria tested
Procedure: buffer (50 mM, pH 7.4). The absorbance was measured at 230 nm after 10 min. The antioxidant activity (reduction of H2O2) of the compounds was expressed as the percentage decrease of the initial H2O2 solution (H2O2%). L−ascorbic acid (or vitamin C) was used as a […]
S2 Antibacterial Activity studies
The antibacterial activity of the compounds was evaluated by determining their respective MIC values towards two Gram–(–) (Escherichia coli XL1 (E. coli) and Xanthomonas campestris ATCC 1395 (X. campestris)) and two Gram–(+) (Staphylococcus aureus ATCC 29213 (S. aureus) and Bacillus subtilis ATCC 6633 (B. subtilis)) bacterial species. Cultures of these microbial strains were grown on a rich selective agar medium and stored at 4°C. The selective media used were Nutrient Agar or Broth for B. subtilis and S. aureus, Yeast Mold Agar or Broth for X. campestris and Luria Agar or Broth for E. coli. Cells picked from the surface of the stored cultures were used to initiate liquid pre–cultures of the same selective medium at an initial turbidity of roughly 1 McFarland unit.
Pre–cultures were incubated for 24 h in a rotary shaking incubator and subsequently […]
progressive double dilution.

[2] = system: supercoiled circular pBR322 plasmid DNA; test: Cleavage and photocleavage of plasmid DNA (gel electrophoresis); type: biochemical; details: compound 500 μM
Procedure: The cleavage of pBR322 plasmid DNA was evaluated both in the presence and absence of irradiation in order to further explore the interaction of the synthesized compounds with DNA and their possible biological efficacy. […] Following incubation of the samples at 37 °C, the impact of the compounds on pDNA was assessed using gel electrophoresis on 1% agarose gels stained with EB. Irradiation at 312 nm (UVB for 30 min), at 365 nm (UVA, for 120 min) or visible light (for 120 min) was also applied to further investigate the possibility of photocleavage activity of the compounds. […] The extent of pDNA damage from each compound was assessed by calculating the percentage of ss% and ds% using Equations (S4) and (S5).
S3.4 EB−displacement studies
The competition of the compounds with EB was investigated by fluorescence emission spectroscopy to examine whether the compounds can displace EB from its DNA−EB adduct. […] The solutions were excited at 540 nm and the emission was monitored from 550−700 nm with λmax = 592−594 nm and the effect of the addition of the compounds to the CT−DNA EB solution was recorded. […]
fluorescence emission bands at room temperature in solution or in the presence of CT DNA or EB under the same experimental conditions (λexcitation = 540 nm); therefore, the observed quenching of the EB−DNA solution may be attributed to the displacement of EB from its […]

| SMILES | MIC [1] | MIC ([1]; summary over the four strains) | total pDNA damage ([2]; dark, 150 min) | pDNA damage ([2]; UVB irradiation 312 nm, 30 min) |
| --- | --- | --- | --- | --- |
| O=C(O)c1ccccc1Nc1ccc([N+](=O)[O-])cc1 [4′–NO2–fenH, 4′–nitrofenamic acid] | 48 to 97 µM | 12.5 to 25 µg/mL | 57% |  |
| O=C([O-])c1ccccc1Nc1ccc([N+](=O)[O-])cc1.O=C([O-])c1ccccc1Nc1ccc([N+](=O)[O-])cc1.[Co+2].c1cnc2c(c1)ccc1cccnc12 [Complex 3, [Co(4′–NO2–fen)2(phen)]] |  |  |  | 89% |

Reference: publication PMC12195967, “Cobalt(II) Complexes of 4′–Nitro–Fenamic Acid: Characterization and Biological Evaluation” (Molecules, 2025)
